Experimental data taken from US20250388542A1, “ANALOGUES OF PENTAMIDINE AND USES THEREFOR” (Auransa Inc., priority 2018, published 2025).

Key:
Test in all cases: CellTiter-Glo cytotoxicity, cancer cell line panel
Type in all cases: cell-based
[1] = test system: SK-NEP-1; details: Homo sapiens; SK-NEP-1, Ewing sarcoma
Method: (§1) The objective of this study is to investigate potential cell killing effect of Compounds 1-15 on 3 cancer cell lines. 50% inhibition concentration (IC50) was determined for these compounds in various cancer cell lines using CellTiter-Glo™ luminescent cell viability assay at different compound concentrations. Each cell line (e.g., NCI-H209; NCI-H69; and SW1271) was treated with Compounds 1-15 and culture medium contains 0.2% [v/v] DMSO vehicle control. All the cells were cultured in the media supplemented with 10-20% fetal bovine serum at 37° C., 5% CO2 and 95% humidity.
(§2) The objective of this study is to investigate the effect of Compound 1 on cytotoxicity against 61 different types of cancer cell lines. IC50 were values were obtained using CellTiter-Glo™ as described above. Each cell line shown in Table 3 was treated with Compound 1, a standard chemotherapy drug, cisplatin, as reference control and culture medium contains 0.2% [v/v] DMSO vehicle control. All cancer cell lines were cultured in media supplemented with 10-20% fetal bovine serum at 37° C., 5% CO2 and 95% humidity.

[2] = test system: HCT 116; details: Homo sapiens; HCT 116, Colon carcinoma
Method: as §1, §2

[3] = test system: HUH-7; details: Homo sapiens; HUH-7, Hepatocellular carcinoma
Method: as §1, §2

[4] = test system: MHCC97-H; details: Homo sapiens, MHCC97H, Hepatocellular carcinoma
Method: as §1, §2

[5] = test system: SF268; details: Homo sapiens, SF-268; SF268, Astrocytoma
Method: as §1, §2

[6] = test system: U-87 MG; details: Homo sapiens, Glioblastoma
Method: as §1, §2

[7] = test system: Hep G2/C3A; details: HepG2/C3A, Hepatoblastoma carcinoma
Method: as §1, §2

[8] = test system: SNU-368; details: SNU-368, Hepatocellular carcinoma
Method: as §1, §2

[9] = test system: HLE; details: Homo sapiens, Hepatocellular carcinoma
Method: as §1, §2

[10] = test system: JHH-5; details: JHH-5, Hepatocellular carcinoma
Method: as §1, §2

[11] = test system: A498; details: Homo sapiens; A498, Renal cell carcinoma
Method: as §1, §2

[12] = test system: 786-O; details: Homo sapiens, 786-0, Renal cell carcinoma
Method: as §1, §2

[13] = test system: OZ; details: Intrahepatic cholangiocarcinoma
Method: as §1, §2

[14] = test system: DLD-1; details: Homo sapiens; DLD-1, Colon adenocarcinoma
Method: as §1, §2

[15] = test system: SNU-398; details: Homo sapiens; SNU-398, Hepatocellular carcinoma
Method: as §1, §2

[16] = test system: Caki-1; details: Homo sapiens; Caki-1, Clear cell renal cell carcinoma
Method: as §1, §2

[17] = test system: HCCC-9810; details: HCCC9810; HCCC-9810, Intrahepatic cholangiocarcinoma
Method: as §1, §2

[18] = test system: SNU-761; details: SNU-761, Hepatocellular carcinoma
Method: as §1, §2

[19] = test system: RBE; details: Intrahepatic cholangiocarcinoma
Method: as §1, §2

[20] = test system: OS-RC-2; details: Homo sapiens; OS-RC-2, Renal cell carcinoma
Method: as §1, §2

[21] = test system: NCI-H460; details: Homo sapiens; NCI-H460, Large cell lung carcinoma
Method: as §1, §2

[22] = test system: JHH-7; details: JHH7; JHH-7, Hepatocellular carcinoma
Method: as §1, §2

[23] = test system: A549; details: Homo sapiens; A549, Lung adenocarcinoma
Method: as §1, §2

[24] = test system: SNU-354; details: Homo sapiens; SNU-354, Hepatocellular carcinoma
Method: as §1, §2

[25] = test system: SNU-475; details: Homo sapiens; SNU-475, Hepatocellular carcinoma
Method: as §1, §2

[26] = test system: SK-OV-3; details: Homo sapiens; SK-OV-3, Ovarian serous cystadenocarcinoma
Method: as §1, §2

[27] = test system: SNU-423; details: Homo sapiens; SNU-423, Hepatocellular carcinoma
Method: as §1, §2

[28] = test system: HuCCT1; details: Homo sapiens, HuCCT-1; HuCCT1, Intrahepatic cholangiocarcinoma
Method: as §1, §2

[29] = test system: LNCaP clone FGC; details: Homo sapiens, Prostate carcinoma
Method: as §1, §2

[30] = test system: NOZ; details: Gallbladder carcinoma
Method: as §1, §2

[31] = test system: 769-P; details: Homo sapiens, Renal cell carcinoma
Method: as §1, §2

SMILES: N=C(N)c1ccc(OCCCCCOc2ccc(C(=N)N)nc2)cc1 [Compound 1, 5-(5-(4-carbamimidoylphenoxy)pentyloxy)picolinimidamide]
- IC50 [1]: 1930 nM
- IC50 [2]: 2670 nM
- IC50 [3]: 970 nM
- IC50 [4]: 8310 nM
- IC50 [5]: 750 nM
- IC50 [6]: 5580 nM
- IC50 [7]: 230 nM
- IC50 [8]: 360 nM
- IC50 [9]: 590 nM
- IC50 [10]: 650 nM
- IC50 [11]: 1170 nM
- IC50 [12]: 9630 nM
- IC50 [13]: 9390 nM
- IC50 [14]: 3110 nM
- IC50 [15]: 220 nM
- IC50 [16]: 3420 nM
- IC50 [17]: 710 nM
- IC50 [18]: 3310 nM
- IC50 [19]: 1400 nM
- IC50 [20]: 1700 nM
- IC50 [21]: 520 nM
- IC50 [22]: 500 nM
- IC50 [23]: 370 nM
- IC50 [24]: 840 nM
- IC50 [25]: 1250 nM
- IC50 [26]: 1170 nM
- IC50 [27]: 1750 nM
- IC50 [28]: 8010 nM
- IC50 [29]: 1780 nM
- IC50 [30]: 2540 nM
- IC50 [31]: 1630 nM
